Literature values, collected in US7196084B2, “Cdc25 phosphatase inhibitors” (Societe de Conseils de Recherches et d'Applications …, priority 2000, dated 2007).

How the values were obtained:
[1] = molecular target: T1, cdc25-A (Homo sapiens, UniProt P30304); conditions: read-out: inhibition constant (Ki) on cdc25-A; cited from earlier work
T1 sequence (P30304 1-524): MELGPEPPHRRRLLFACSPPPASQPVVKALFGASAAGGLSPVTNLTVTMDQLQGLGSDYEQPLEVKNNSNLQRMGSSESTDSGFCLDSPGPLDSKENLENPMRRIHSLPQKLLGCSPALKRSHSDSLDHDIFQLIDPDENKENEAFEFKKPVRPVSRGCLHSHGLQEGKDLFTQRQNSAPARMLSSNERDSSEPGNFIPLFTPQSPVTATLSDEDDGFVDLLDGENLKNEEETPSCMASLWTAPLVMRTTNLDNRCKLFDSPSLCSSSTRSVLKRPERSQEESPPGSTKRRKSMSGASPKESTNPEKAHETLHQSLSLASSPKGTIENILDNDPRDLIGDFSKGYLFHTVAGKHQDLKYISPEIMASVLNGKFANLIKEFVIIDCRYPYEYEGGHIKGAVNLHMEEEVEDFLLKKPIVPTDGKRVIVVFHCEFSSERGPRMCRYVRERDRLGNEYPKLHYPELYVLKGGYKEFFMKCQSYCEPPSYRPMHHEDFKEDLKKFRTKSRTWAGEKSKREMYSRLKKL

[2] = molecular target: T2, cdc25-B2 (Homo sapiens, UniProt P30305); conditions: read-out: inhibition constant (Ki) on cdc25-B2; cited from earlier work
T2 sequence (P30305 1-539 isoform P30305-3): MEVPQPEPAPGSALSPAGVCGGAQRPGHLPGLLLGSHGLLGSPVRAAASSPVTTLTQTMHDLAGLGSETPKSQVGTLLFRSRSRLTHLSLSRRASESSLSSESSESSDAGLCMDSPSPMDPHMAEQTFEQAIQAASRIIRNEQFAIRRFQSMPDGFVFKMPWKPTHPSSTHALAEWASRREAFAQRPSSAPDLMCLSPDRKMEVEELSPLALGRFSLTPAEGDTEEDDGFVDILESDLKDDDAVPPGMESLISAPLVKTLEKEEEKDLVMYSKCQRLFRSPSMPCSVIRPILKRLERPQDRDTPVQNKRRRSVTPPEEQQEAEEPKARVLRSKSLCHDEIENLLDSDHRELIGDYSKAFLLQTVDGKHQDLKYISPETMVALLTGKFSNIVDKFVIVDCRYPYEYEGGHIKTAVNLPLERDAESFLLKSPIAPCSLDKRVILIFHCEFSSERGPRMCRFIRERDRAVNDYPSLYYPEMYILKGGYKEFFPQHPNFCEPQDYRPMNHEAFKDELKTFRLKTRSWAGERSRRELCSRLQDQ

[3] = molecular target: T3, cdc25-C (Homo sapiens, UniProt P30307); conditions: read-out: inhibition constant (Ki) on cdc25-C; cited from earlier work
T3 sequence (P30307 1-473): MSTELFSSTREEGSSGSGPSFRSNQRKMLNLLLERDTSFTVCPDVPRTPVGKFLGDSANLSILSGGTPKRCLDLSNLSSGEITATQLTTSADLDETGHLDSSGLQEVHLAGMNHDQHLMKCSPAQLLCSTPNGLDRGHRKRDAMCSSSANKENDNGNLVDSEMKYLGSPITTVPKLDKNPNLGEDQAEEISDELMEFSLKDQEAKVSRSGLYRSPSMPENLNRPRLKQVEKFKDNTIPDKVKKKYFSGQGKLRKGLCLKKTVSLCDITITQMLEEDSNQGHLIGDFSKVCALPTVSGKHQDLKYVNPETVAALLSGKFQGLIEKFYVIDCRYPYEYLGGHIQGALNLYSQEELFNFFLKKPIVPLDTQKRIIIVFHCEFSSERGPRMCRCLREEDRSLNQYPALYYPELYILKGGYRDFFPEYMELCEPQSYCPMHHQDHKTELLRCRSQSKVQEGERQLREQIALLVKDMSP

**Q.** For `CC1=C(SCCO)C(=O)c2ccccc2C1=O` [Cpd5], which Ki [1] is on record?
**A.** Its Ki is 15 µM.

**Q.** And the Ki [2]?
**A.** Its Ki is 1.7 µM.

**Q.** And the Ki [3]?
**A.** The Ki was 1.3 µM.
